From US12503438B2, “Compounds for the treatment of kinase-dependent disorders” (Exelixis, Inc., priority 2019, dated 2025)

What was measured:
[1] = biological target: T1, Human Axl (Homo sapiens, UniProt P30530, Q764R); assay: Human AXL kinase assay (33P-phosphoryl transfer radiometric, KinaseProfiler); settings: biochemical activity; 10 μM ATP
T1 construct: Human Axl (residues H473-A894 with Q764R, 161 nM); purchased Eurofins Pharma Discovery Services UK Limited (KinaseProfiler service)
T1 sequence (P30530 473-894 Q764R): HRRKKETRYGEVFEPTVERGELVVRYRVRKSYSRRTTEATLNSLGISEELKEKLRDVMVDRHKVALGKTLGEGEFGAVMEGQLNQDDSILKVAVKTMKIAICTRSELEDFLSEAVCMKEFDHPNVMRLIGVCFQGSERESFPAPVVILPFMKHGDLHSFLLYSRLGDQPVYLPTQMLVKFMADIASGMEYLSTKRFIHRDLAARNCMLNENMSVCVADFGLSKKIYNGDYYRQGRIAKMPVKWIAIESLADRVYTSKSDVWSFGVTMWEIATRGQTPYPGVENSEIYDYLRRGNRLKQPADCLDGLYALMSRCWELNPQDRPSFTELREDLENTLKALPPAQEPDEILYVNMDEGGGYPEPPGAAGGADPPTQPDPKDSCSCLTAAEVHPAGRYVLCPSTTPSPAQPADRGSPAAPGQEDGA
Method: (§1) Kinase activity and compound inhibition were investigated using the ^33P-Phosphoryl transfer radiometric kinase assay, performed using the KinaseProfiler™ service of Eurofins Pharma Discovery Services UK Limited. Dose-response experiments were performed using nine compound concentrations in a 96-well microtiter plate. For each assay, all compounds were prepared to a 50× final assay concentration (50 μM) in 100% DMSO, then diluted in a half-log series, with the final top concentration at 1 μM. This working stock of the compound was added to the assay well as the first component in the reaction, followed by the remaining components as detailed in the following assay protocols below. The positive control wells (100% kinase activity) contain all components of the reaction including 2% DMSO (control for solvent effects), except the compound of interest. Blank wells contain all components of the reaction, with the reference inhibitor, staurosporine. This reference compound was used to abolish kinase activity and generated the 0% kinase activity base-line. IC50 values were calculated by nonlinear regression analysis using the sigmoidal dose-response (variable slope) curve fit on XLFit version 5.3 (ID Business Solutions).
(§2) Human Axl (residues H473-A894 with Q764R, 161 nM) was incubated with 8 mM MOPS pH 7.0, 0.2 mM EDTA, 250 μM KKSRGDYMTMQIG, 10 mM magnesium acetate, and 10 μM [y-^33P-ATP]. The reaction was initiated by the addition of the Mg/ATP mix. After incubation for 40 minutes at room temperature, the reaction was stopped by the addition of phosphoric acid to a concentration of 0.5%. A reaction aliquot of 10 μL was then spotted onto a P30 filtermat and washed four times for 4 minutes in 0.425% phosphoric acid and once in methanol prior to drying and scintillation counting. Incorporated ^33P was measured using the Wallac Microbeta scintillation counter (Perkin Elmer).

[2] = biological target: KDR (Homo sapiens, UniProt P35968); assay: Human KDR kinase assay (33P-phosphoryl transfer radiometric, KinaseProfiler); set-up: Human KDR (residues K790-V1356, 55 nM); purchased Eurofins Pharma Discovery Services UK Limited (KinaseProfiler service); settings: biochemical activity; 10 μM ATP
Chain of KDR (P35968 790-1356): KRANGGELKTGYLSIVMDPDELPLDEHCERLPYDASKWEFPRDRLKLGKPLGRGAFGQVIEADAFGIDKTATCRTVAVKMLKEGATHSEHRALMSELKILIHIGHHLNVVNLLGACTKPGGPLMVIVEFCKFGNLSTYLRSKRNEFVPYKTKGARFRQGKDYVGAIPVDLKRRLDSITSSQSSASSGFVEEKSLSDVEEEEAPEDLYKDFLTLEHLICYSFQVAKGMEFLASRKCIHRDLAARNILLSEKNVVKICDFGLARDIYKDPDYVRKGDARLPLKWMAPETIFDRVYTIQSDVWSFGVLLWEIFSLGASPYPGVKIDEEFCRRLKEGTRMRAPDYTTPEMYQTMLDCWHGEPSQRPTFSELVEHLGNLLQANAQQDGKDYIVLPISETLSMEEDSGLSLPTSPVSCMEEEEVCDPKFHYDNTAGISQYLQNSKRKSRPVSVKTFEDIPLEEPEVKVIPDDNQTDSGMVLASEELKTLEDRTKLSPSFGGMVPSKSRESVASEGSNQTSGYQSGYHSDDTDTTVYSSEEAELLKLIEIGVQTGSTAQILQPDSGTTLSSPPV
Method: as §1
as §2, with “KDR” for “Axl”, “K790-V1356, 55” for “H473-A894 with Q764R, 161”, “0.33 mg/mL myelin basic protein,” for “250 μM KKSRGDYMTMQIG,”, “[γ-^33P-ATP].” for “[y-^33P-ATP].”

SMILES | IC50 [1] [nM] | IC50 [2] [nM]
COCCn1cc(-c2ccc3c(Oc4ccc(NC(=O)C5(C(=O)Nc6ccc(F)cc6)CC5)cc4)ccnc3c2)cn1 [Compound 10, 1-N′-(4-Fluorophenyl)-1-N-[4-[7-[1-(2-methoxyethyl)pyrazol-4-yl]quinolin-4-yl]oxyphenyl]cyclopropane-1,1-dicarboxamide] | ≤ 10 | 10 to 100
Cn1cc(-c2ccc3c(Oc4ccc(NC(=O)C5(C(=O)Nc6ccc(F)cc6)CC5)cc4)ccnc3c2)cn1 [Compound 11, 1-N′-(4-Fluorophenyl)-1-N-[4-[7-(1-methylpyrazol-4-yl)quinolin-4-yl]oxyphenyl]cyclopropane-1,1-dicarboxamide] | ≤ 10 | 10 to 100
O=C(Nc1ccc(F)cc1)C1(C(=O)Nc2ccc(Oc3ccnc4cc(-c5cnn(C(F)(F)F)c5)ccc34)cc2)CC1 [Compound 12, 1-N′-(4-Fluorophenyl)-1-N-[4-[7-[1-(trifluoromethyl)pyrazol-4-yl]quinolin-4-yl]oxyphenyl]cyclopropane-1,1-dicarboxamide] | 10 to 100 | 10 to 100
O=C(Nc1ccc(F)cc1)C1(C(=O)Nc2ccc(Oc3ccnc4cc(-c5cnn(C(F)F)c5)ccc34)cc2)CC1 [Compound 13, 1-N-[4-[7-[1-(Difluoromethyl)pyrazol-4-yl]quinolin-4-yl]oxyphenyl]-1-N′-(4-fluorophenyl)cyclopropane-1,1-dicarboxamide] | 10 to 100 | 10 to 100
O=C(Nc1ccc(F)cc1)C1(C(=O)Nc2ccc(Oc3ccnc4cc(-c5cnn(CCF)c5)ccc34)cc2)CC1 [Compound 14, 1-N-[4-[7-[1-(2-Fluoroethyl)pyrazol-4-yl]quinolin-4-yl]oxyphenyl]-1-N′-(4-fluorophenyl)cyclopropane-1,1-dicarboxamide] | ≤ 10 | 10 to 100
O=C(Nc1ccc(F)cc1)C1(C(=O)Nc2ccc(Oc3ccnc4cc(-c5cnn(CC(F)F)c5)ccc34)cc2)CC1 [Compound 15, 1-N-[4-[7-[1-(2,2-Difluoroethyl)pyrazol-4-yl]quinolin-4-yl]oxyphenyl]-1-N′-(4-fluorophenyl)cyclopropane-1,1-dicarboxamide] | ≤ 10 | 10 to 100
O=C(Nc1ccc(F)cc1)C1(C(=O)Nc2ccc(Oc3ccnc4cc(-c5cnn(CC(F)(F)F)c5)ccc34)cc2)CC1 [Compound 16, 1-N′-(4-Fluorophenyl)-1-N-[4-[7-[1-(2,2,2-trifluoroethyl)pyrazol-4-yl]quinolin-4-yl]oxyphenyl]cyclopropane-1,1-dicarboxamide] | 10 to 100 | 10 to 100
Cn1ccc(-c2ccc3c(Oc4ccc(NC(=O)C5(C(=O)Nc6ccc(F)cc6)CC5)cc4)ccnc3c2)n1 [Compound 17, 1-N′-(4-Fluorophenyl)-1-N-[4-[7-(1-methylpyrazol-3-yl)quinolin-4-yl]oxyphenyl]cyclopropane-1,1-dicarboxamide] | 10 to 100 | 10 to 100
O=C(Nc1ccc(F)cc1)C1(C(=O)Nc2ccc(Oc3ccnc4cc(-c5cnn(CCO)c5)ccc34)cc2)CC1 [Compound 18, 1-N′-(4-Fluorophenyl)-1-N-[4-[7-[1-(2-hydroxyethyl)pyrazol-4-yl]quinolin-4-yl]oxyphenyl]cyclopropane-1,1-dicarboxamide] | ≤ 10 | ≤ 10
O=C(Nc1ccc(F)cc1)C1(C(=O)Nc2ccc(Oc3ccnc4cc(-c5cnn(CCN6CCOCC6)c5)ccc34)cc2)CC1 [Compound 19, 1-N′-(4-Fluorophenyl)-1-N-[4-[7-[1-(2-morpholin-4-ylethyl)pyrazol-4-yl]quinolin-4-yl]oxyphenyl]cyclopropane-1,1-dicarboxamide] | ≤ 10 | 10 to 100
CCn1cc(-c2ccc3c(Oc4ccc(NC(=O)C5(C(=O)Nc6ccc(F)cc6)CC5)cc4)ccnc3c2)cn1 [Compound 20, 1-N-[4-[7-(1-Ethylpyrazol-4-yl)quinolin-4-yl]oxyphenyl]-1-N′-(4-fluorophenyl)cyclopropane-1,1-dicarboxamide] | ≤ 10 | 10 to 100
O=C(Nc1ccc(F)cc1)C1(C(=O)Nc2ccc(Oc3ccnc4cc(-c5cnn(C6CC6)c5)ccc34)cc2)CC1 [Compound 22, 1-N-[4-[7-(1-Cyclopropylpyrazol-4-yl)quinolin-4-yl]oxyphenyl]-1-N′-(4-fluorophenyl)cyclopropane-1,1-dicarboxamide] | 10 to 100 | 10 to 100
CC(C)(C)n1cc(-c2ccc3c(Oc4ccc(NC(=O)C5(C(=O)Nc6ccc(F)cc6)CC5)cc4)ccnc3c2)cn1 [Compound 23, 1-N-[4-[7-(1-tert-Butylpyrazol-4-yl)quinolin-4-yl]oxyphenyl]-1-N′-(4-fluorophenyl)cyclopropane-1,1-dicarboxamide] | 10 to 100 | 10 to 100
O=C(Nc1ccc(F)cc1)C1(C(=O)Nc2ccc(Oc3ccnc4cc(-c5cnn(C6COC6)c5)ccc34)cc2)CC1 [Compound 24, 1-N′-(4-Fluorophenyl)-1-N-[4-[7-[1-(oxetan-3-yl)pyrazol-4-yl]quinolin-4-yl]oxyphenyl]cyclopropane-1,1-dicarboxamide] | ≤ 10 | 10 to 100
O=C(Nc1ccc(F)cc1)C1(C(=O)Nc2ccc(Oc3ccnc4cc(-c5cccnc5)ccc34)cc2)CC1 [Compound 25, 1-N′-(4-Fluorophenyl)-1-N-[4-(7-pyridin-3-ylquinolin-4-yl)oxyphenyl]cyclopropane-1,1-dicarboxamide] | 10 to 100 | 10 to 100
O=C(Nc1ccc(F)cc1)C1(C(=O)Nc2ccc(Oc3ccnc4cc(-c5ccncc5)ccc34)cc2)CC1 [Compound 26, 1-N′-(4-Fluorophenyl)-1-N-[4-(7-pyridin-4-ylquinolin-4-yl)oxyphenyl]cyclopropane-1,1-dicarboxamide] | 10 to 100 | 10 to 100
O=C(Nc1ccc(F)cc1)C1(C(=O)Nc2ccc(Oc3ccnc4cc(-c5cncnc5)ccc34)cc2)CC1 [Compound 27, 1-N′-(4-Fluorophenyl)-1-N-[4-(7-pyrimidin-5-ylquinolin-4-yl)oxyphenyl]cyclopropane-1,1-dicarboxamide] | ≤ 10 | ≤ 10
O=C(Nc1ccc(F)cc1)C1(C(=O)Nc2ccc(Oc3ccnc4cc(-c5ccnnc5)ccc34)cc2)CC1 [Compound 28, 1-N′-(4-Fluorophenyl)-1-N-[4-(7-pyridazin-4-ylquinolin-4-yl)oxyphenyl]cyclopropane-1,1-dicarboxamide] | 10 to 100 | 10 to 100
Cc1noc(C)c1-c1ccc2c(Oc3ccc(NC(=O)C4(C(=O)Nc5ccc(F)cc5)CC4)cc3)ccnc2c1 [Compound 53, 1-N-[4-[7-(3,5-Dimethyl-1,2-oxazol-4-yl)quinolin-4-yl]oxyphenyl]-1-N′-(4-fluorophenyl)cyclopropane-1,1-dicarboxamide] | 100 to 1000 | 10 to 100
Cn1nccc1-c1ccc2c(Oc3ccc(NC(=O)C4(C(=O)Nc5ccc(F)cc5)CC4)cc3)ccnc2c1 [Compound 54, 1-N′-(4-Fluorophenyl)-1-N-[4-[7-(2-methylpyrazol-3-yl)quinolin-4-yl]oxyphenyl]cyclopropane-1,1-dicarboxamide] | 10 to 100 | 10 to 100
O=C(Nc1ccc(F)cc1)C1(C(=O)Nc2ccc(Oc3ccnc4cc(-c5cnoc5)ccc34)cc2)CC1 [Compound 57, 1-N′-(4-Fluorophenyl)-1-N-[4-[7-(1,2-oxazol-4-yl)quinolin-4-yl]oxyphenyl]cyclopropane-1,1-dicarboxamide] | ≤ 10 | 10 to 100
O=C(Nc1ccc(F)cc1)C1(C(=O)Nc2ccc(Oc3ccnc4cc(-c5cnn(C6CCNCC6)c5)ccc34)cc2)CC1 [Compound 60, 1-N′-(4-Fluorophenyl)-1-N-[4-[7-(1-piperidin-4-ylpyrazol-4-yl)quinolin-4-yl]oxyphenyl]cyclopropane-1,1-dicarboxamide] | ≤ 10 | 10 to 100
